Results reported in the CheMixHub viscosity set.
± gives the uncertainty stated by the source.

Experiment: xn = mol fraction of the nth substance listed

CC(C)CC(C)(C)C + Cc1ccccc1
101 kPa
Details | viscosity [mPa·s]
298.15 K, x1 = 0.1138 | 0.519 ± 0.004
298.15 K, x1 = 0.2032 | 0.498 ± 0.004
298.15 K, x1 = 0.2796 | 0.485 ± 0.004
298.15 K, x1 = 0.3319 | 0.477 ± 0.004
298.15 K, x1 = 0.4044 | 0.47 ± 0.004
298.15 K, x1 = 0.4365 | 0.467 ± 0.003
298.15 K, x1 = 0.4983 | 0.464 ± 0.003
298.15 K, x1 = 0.618 | 0.459 ± 0.003
298.15 K, x1 = 0.6934 | 0.458 ± 0.003
298.15 K, x1 = 0.7315 | 0.461 ± 0.004
298.15 K, x1 = 0.8036 | 0.463 ± 0.004
298.15 K, x1 = 0.8966 | 0.467 ± 0.004
298.15 K, x1 = 0.9292 | 0.47 ± 0.004
298.15 K, x1 = 0.9743 | 0.474 ± 0.004
308.15 K, x1 = 0.0644 | 0.4877 ± 0.0051
308.15 K, x1 = 0.1217 | 0.4728 ± 0.005
308.15 K, x1 = 0.1933 | 0.4593 ± 0.0049
308.15 K, x1 = 0.2715 | 0.4474 ± 0.0048
308.15 K, x1 = 0.3689 | 0.4362 ± 0.0047
308.15 K, x1 = 0.4483 | 0.4305 ± 0.0046
308.15 K, x1 = 0.5805 | 0.4258 ± 0.0046
308.15 K, x1 = 0.6997 | 0.425 ± 0.0046
308.15 K, x1 = 0.8297 | 0.4265 ± 0.0046

CCCCCCO + CO
298.15 K, 101.33 kPa
Details | viscosity [mPa·s]
x2 = 0.1054 | 3.881 ± 0.036
x2 = 0.2016 | 3.351 ± 0.031
x2 = 0.3144 | 2.778 ± 0.025
x2 = 0.4093 | 2.348 ± 0.022
x2 = 0.5053 | 1.968 ± 0.018
x2 = 0.6027 | 1.615 ± 0.015
x2 = 0.7094 | 1.278 ± 0.012
x2 = 0.8038 | 1.001 ± 0.0096
x2 = 0.9022 | 0.7601 ± 0.0075

O=C1CCCCC1 + CCCCCCCCCCCC
viscosity [mPa·s], 101.33 kPa
Details | x1 = 0.1085 | x1 = 0.1979 | x1 = 0.3049 | x1 = 0.4052 | x1 = 0.5049 | x1 = 0.6012 | x1 = 0.7012 | x1 = 0.8014 | x1 = 0.9008
298.15 K | 1.348 ± 0.009 | 1.352 ± 0.009 | 1.368 ± 0.009 | 1.393 ± 0.009 | 1.42 ± 0.01 | 1.474 ± 0.01 | 1.533 ± 0.01 | 1.614 ± 0.011 | 1.75 ± 0.013
303.15 K | 1.237 ± 0.008 | 1.238 ± 0.008 | 1.252 ± 0.009 | 1.272 ± 0.009 | 1.302 ± 0.009 | 1.344 ± 0.009 | 1.398 ± 0.009 | 1.469 ± 0.01 | 1.623 ± 0.011
308.15 K | 1.135 ± 0.008 | 1.139 ± 0.008 | 1.151 ± 0.008 | 1.171 ± 0.008 | 1.199 ± 0.008 | 1.232 ± 0.008 | 1.281 ± 0.009 | 1.349 ± 0.009 | 1.483 ± 0.01

CCOCC + C=C(C)C(=O)OC
298.15 K, 101.3 kPa
Details | viscosity [mPa·s]
x2 = 0.0454 | 0.249 ± 0.003
x2 = 0.1483 | 0.281 ± 0.003
x2 = 0.249 | 0.314 ± 0.003
x2 = 0.3495 | 0.349 ± 0.003
x2 = 0.4486 | 0.385 ± 0.003
x2 = 0.4908 | 0.4 ± 0.004
x2 = 0.5479 | 0.421 ± 0.004
x2 = 0.6504 | 0.459 ± 0.004
x2 = 0.7501 | 0.496 ± 0.004
x2 = 0.8488 | 0.532 ± 0.004
x2 = 0.947 | 0.567 ± 0.004

O=C1CCCCC1 + CCCCOC(C)=O
viscosity [mPa·s], 101 kPa
Details | 298.15 K | 303.15 K | 308.15 K | 313.15 K
x1 = 0.1162 | 0.689 ± 0.006 | – | – | –
x1 = 0.2283 | 0.732 ± 0.006 | – | – | –
x1 = 0.3365 | 0.788 ± 0.007 | – | – | –
x1 = 0.441 | 0.871 ± 0.007 | – | – | –
x1 = 0.542 | 0.976 ± 0.008 | – | – | –
x1 = 0.6397 | 1.109 ± 0.009 | – | – | –
x1 = 0.7341 | 1.281 ± 0.01 | – | – | –
x1 = 0.8256 | 1.478 ± 0.011 | – | – | –
x1 = 0.9142 | 1.731 ± 0.013 | – | – | –
x2 = 0.0814 | 1.757 ± 0.023 | 1.589 ± 0.021 | 1.445 ± 0.019 | 1.321 ± 0.017
x2 = 0.165 | 1.536 ± 0.021 | 1.393 ± 0.019 | 1.274 ± 0.017 | 1.166 ± 0.015
x2 = 0.2509 | 1.362 ± 0.019 | 1.235 ± 0.017 | 1.137 ± 0.015 | 1.045 ± 0.014
x2 = 0.3438 | 1.214 ± 0.017 | 1.101 ± 0.015 | 1.016 ± 0.014 | 0.934 ± 0.013
x2 = 0.4391 | 1.099 ± 0.015 | 0.999 ± 0.014 | 0.922 ± 0.013 | 0.852 ± 0.012
x2 = 0.5412 | 0.995 ± 0.014 | 0.904 ± 0.013 | 0.838 ± 0.012 | 0.775 ± 0.011
x2 = 0.6451 | 0.914 ± 0.013 | 0.83 ± 0.012 | 0.774 ± 0.011 | 0.715 ± 0.01
x2 = 0.7589 | 0.836 ± 0.013 | 0.763 ± 0.011 | 0.711 ± 0.011 | 0.66 ± 0.01
x2 = 0.8707 | 0.767 ± 0.012 | 0.7 ± 0.011 | 0.658 ± 0.01 | 0.61 ± 0.009

O=C1CCCCC1 + C1CCCCC1
Details | viscosity [mPa·s]
298.15 K, 101.3 kPa, x2 = 0.4895 | 1.275 ± 0.02
303.15 K, 101 kPa, x2 = 0.1065 | 1.596 ± 0.019
303.15 K, 101 kPa, x2 = 0.2078 | 1.451 ± 0.017
303.15 K, 101 kPa, x2 = 0.3013 | 1.32 ± 0.015
303.15 K, 101 kPa, x2 = 0.3971 | 1.214 ± 0.014
303.15 K, 101 kPa, x2 = 0.5022 | 1.102 ± 0.013
303.15 K, 101 kPa, x2 = 0.604 | 1.027 ± 0.012
303.15 K, 101 kPa, x2 = 0.7024 | 0.9614 ± 0.011
303.15 K, 101 kPa, x2 = 0.8086 | 0.8788 ± 0.01
303.15 K, 101 kPa, x2 = 0.8742 | 0.8504 ± 0.01
303.15 K, 101 kPa, x2 = 0.9034 | 0.8387 ± 0.0099
